“Also recorded” adds a separate entry of the source.

One data set has as its system CBA/CaJ mice. To be noted: mouse, in vivo.
Another data set addresses mouse α9α10 nAChR (Mus musculus, UniProt B2RX82+G3X8Z7). Description: Agonist activation of mouse α9α10 nAChRs in Xenopus oocytes (two-electrode voltage clamp). Type of data set: biochemical. To be noted: for Hill slope for activation / EC50: 95% confidence interval in parentheses, ACh n = 5, choline n = 4; for agonist behaviour (words): oocyte two-electrode voltage clamp, nicotine 100 nM to 10 mM; for EC50: oocytes, holding potential −70 mV. The method, then:
X. laevis oocytes were injected with 25 ng of each cRNA encoding α9 and α10 subunits as previously described (Cartier et al., [1996]) and incubated for 48 h at 17°C in ND96 prior to use. Two-electrode voltage clamp electrophysiology was conducted to assess for functional expression of α9α10 nAChRs as previously described (Azam et al., [2008]). The oocyte membranes were clamped at a holding potential of −70 mV and stimulated with 1 s pulses of 1 mM ACh once every 60 s. After a steady-state response baseline was observed, the oocytes were then stimulated with ascending concentrations of ACh, choline, or nicotine. Each oocyte was stimulated first with ACh followed by choline then nicotine. The maximal response value for activation by ACh was determined using the Hill equation: Y = Bottom + (Top-Bottom)/(1+10^∧((LogEC50−X)*Hill slope)). The responses to all concentrations of ACh, choline, and nicotine were then normalized to this value and calculated as a % response.
Background: Two-electrode voltage clamp holds a large cell at a set potential and records current.

The next data set concerns α9α10 nAChR. To be noted: MLA and α-bungarotoxin; no reference given; cited from earlier work.
The subject of a further data set is α9* nAChRs of monocytes. To be noted: ref Hecker et al., 2015; Richter et al., 2016; Backhaus et al., 2017; cited from earlier work.

Chain of mouse α9α10 nAChR (G3X8Z7 23-479): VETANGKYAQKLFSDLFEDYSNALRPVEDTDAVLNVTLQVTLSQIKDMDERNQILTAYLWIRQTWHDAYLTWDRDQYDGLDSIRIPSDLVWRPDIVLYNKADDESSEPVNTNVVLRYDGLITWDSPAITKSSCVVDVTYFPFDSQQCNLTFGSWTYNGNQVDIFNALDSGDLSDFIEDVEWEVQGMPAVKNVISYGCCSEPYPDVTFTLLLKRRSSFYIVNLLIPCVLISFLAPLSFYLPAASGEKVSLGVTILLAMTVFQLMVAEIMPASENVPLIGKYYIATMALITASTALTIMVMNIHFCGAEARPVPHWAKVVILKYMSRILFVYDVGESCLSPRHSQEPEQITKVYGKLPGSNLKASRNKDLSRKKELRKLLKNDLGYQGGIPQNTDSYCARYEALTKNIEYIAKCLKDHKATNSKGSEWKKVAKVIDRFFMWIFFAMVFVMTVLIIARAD
Chain of mouse α9α10 nAChR (B2RX82 25-447): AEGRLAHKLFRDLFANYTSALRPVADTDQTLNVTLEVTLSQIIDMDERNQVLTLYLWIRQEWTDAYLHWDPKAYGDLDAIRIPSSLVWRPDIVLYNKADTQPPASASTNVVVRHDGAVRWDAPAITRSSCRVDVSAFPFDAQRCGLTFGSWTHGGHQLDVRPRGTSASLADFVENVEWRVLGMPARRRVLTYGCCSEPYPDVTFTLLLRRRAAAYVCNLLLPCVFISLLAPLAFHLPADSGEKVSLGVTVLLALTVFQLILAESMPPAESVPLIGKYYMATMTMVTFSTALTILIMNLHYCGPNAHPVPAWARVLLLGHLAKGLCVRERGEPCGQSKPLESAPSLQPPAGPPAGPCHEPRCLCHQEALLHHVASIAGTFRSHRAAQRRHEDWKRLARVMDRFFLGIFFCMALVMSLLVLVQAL

Turning to `O=C1[O][Pt]2([NH][C@@H]3CCCC[C@H]3[NH]2)[O]C1=O` [oxaliplatin], the “Oxaliplatin-induced cold allodynia” value in the data set with CBA/CaJ mice was “produced cold allodynia, an effect that significantly differed from control beginning by week three and continuing for 2 weeks post-oxaliplatin treatment”.

On to `CC(=O)OCC[N+](C)(C)C` [ACh, acetylcholine], for which, on mouse α9α10 nAChR (1 mM ACh), the ACh-evoked current amplitude is listed as more than 10 μA. On mouse α9α10 nAChR, the “Hill slope for activation” value is given as 1.1 (0.8–1.4); the “agonist behaviour (words)” value is “activated; also recorded: induced robust currents”; the EC50 (as a rule, the concentration giving half of the maximal effect) turned out to be 30.1 µM.

On to `CCN1C[C@]2(COC(=O)c3ccccc3N3C(=O)C[C@H](C)C3=O)CC[C@H](OC)[C@@]34[C@@H]5C[C@H]6[C@H](OC)[C@@H]5[C@](O)(C[C@@H]6OC)[C@@](O)([C@@H](OC)[C@H]23)[C@@H]14` [methyllycaconitine (MLA), methyllycaconitine], for which the “α9α10 nAChR block” value in the data set with α9α10 nAChR is “potently block α9α10 nAChRs”.

As for `CN1CCC[C@H]1c1cccnc1` [nicotine], the “evoked current (% response relative to ACh maximum)” value on mouse α9α10 nAChR (n = 4, nicotine) turned out to be 0.4 ± 0.2%. Also, the “agonist behaviour (words)” value is “not by nicotine; also recorded: did not activate Xenopus oocyte-expressed mouse α9α10 nAChRs” at mouse α9α10 nAChR, “failed to evoke currents at concentration from 100 nM to 10 mM” on mouse α9α10 nAChR (listed as Nic) and “failed to evoke currents in all oocytes tested” on mouse α9α10 nAChR (listed as Nicotine). Also, in the data set on α9* nAChRs of monocytes, the “Agonist action on monocyte α9* nAChRs” value is “act as an agonist of α9^* nAChRs in immune cell monocytes”.

In the case of `C[N+](C)(C)CCO` [choline], on mouse α9α10 nAChR, the “Hill slope for activation” value was 1.3 (0.5–2.1), the “agonist behaviour (words)” value is recorded as “activated” and the EC50 turned out to be 601 µM. The “agonist behaviour (words)” value on mouse α9α10 nAChR (listed as Choline) is “behaved as a partial agonist relative to ACh; also recorded: potently activated α9α10 nAChRs”.
